Literature values, collected in patent publication US6716451B1 (Soft Gel Technologies, Inc., priority 1999, dated 2004).
Like-named read-outs stand apart in the source and are kept apart here.

Tests used:
human breast cancer cell = settings: in vitro
[1] = subjects taking at least 100 IU daily; more than 12,000 adults

CC(C)=CCC/C(C)=C/CC/C(C)=C/CC[C@]1(C)CCc2cc(O)c(C)c(C)c2O1 [γ-tocotrienol]
inhibition of growth of human breast cancer cells compared with Tamoxifen (human breast cancer cell): more effectively than the popular breast cancer drug, Tamoxifen

Vitamin E
decrease in heart disease risk [1]: 40%
adverse effects (50 mg/day for 1 to 8.2 years, cardiovascular clinical studies): without any adverse effects
adverse effects (oral 50 to 400 IU per day, double-blind clinical studies): did not show any adverse effects
